Blank lines part the entries; values can stand above or below the compound they belong to.
Assays:
mice [1] = test: In vivo delivery of FLuc-mRNA lipid nanoparticles in mice, in vivo imaging (IVIS)
How it was run: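 Mice (n=3) received about 75 μL FLuc-mRNA LNP per mouse intramuscularly (rectus femoris), intravenously (tail vein), intraperitoneally or subcutaneously (back). After injection, D-luciferin (200 μL, 15 mg/mL) was given i.p. 10-15 min before IVIS imaging.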

[2] = Particle size and PDI of nucleic acid lipid nanoparticle preparations by dynamic light scattering; assay type: physicochemical
How it was run: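 Nanoparticle suspension (about 0.04 mg/mL mRNA) diluted in ultrapure water, mixed by gentle pipetting; particle size measured by dynamic light scattering. Zeta potential measured on the recovered sample after further dilution in ultrapure water.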

[3] = Potential characterization of nucleic acid lipid nanoparticle preparations; assay type: physicochemical
How it was run: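 Nanoparticles (about 0.04 mg/mL mRNA) were diluted in ultrapure water for Malvern ZEN3700 measurement: 20 μL into 780 μL for potential alone, or 27.5 μL into 200 μL for DLS particle size followed by addition of 600 μL water for potential.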

mice [4] = test: In vivo delivery of FLuc-circ-RNA lipid nanoparticles in mice; details: Fluc-circ-RNA LNP; for % of organ targeting: IV
Description: Lipid nanoparticles loaded with nucleic acid drugs were prepared according to step 2, replacing FLuc-mRNA with FLuc-circ-RNA (Hongene Biotech Corporation, Shanghai). After formulation, the nanoparticles were administered via intramuscular injection (into the quadriceps femoris muscle of mice), intravenous injection (into the tail vein of mice), intraperitoneal injection, or subcutaneous injection (subcutaneously on the back). Approximately 75 μL was injected per mouse, with a total of 3 mice per group. In vivo imaging (PerkinElmer, IVIS Lumina III) was performed after a certain period of time. Ten to fifteen minutes before imaging, 200 μL of a 15 mg/mL D-Luciferin working solution was injected intraperitoneally, followed by imaging analysis using the in vivo imaging system.

[5] = DMG-PEG2000:DSPC:Chol:Lipid 1.40:11.15:38.95:48.50, N/P 30, IV, liver
[6] = DMG-PEG2000:DSPC:Chol:Lipid 1.40:11.15:38.95:48.50, N/P 30, IV, lung
[7] = DMG-PEG2000:DSPC:Chol:Lipid 1.40:11.15:38.95:48.50, N/P 30, IV, spleen
[8] = DMG-PEG2000:DSPC:Chol:Lipid 4.00:8.00:58.00:30.00, N/P 36, IV, liver
[9] = DMG-PEG2000:DSPC:Chol:Lipid 4.00:8.00:58.00:30.00, N/P 36, IV, lung
[10] = DMG-PEG2000:DSPC:Chol:Lipid 4.00:8.00:58.00:30.00, N/P 36, IV, spleen
[11] = DMG-PEG2000:DSPC:Chol:Lipid 1.40:11.15:38.95:48.50, N/P 30, mRNA LNP
[12] = DMG-PEG2000:DSPC:Chol:Lipid 4.00:8.00:58.00:30.00, N/P 36, mRNA LNP
[13] = DMG-PEG2000:DSPC:Chol:compound 1.00:10.00:33.00:56.00, N/P 48
[14] = Fluc-circ-RNA LNP, preparation given IV
[15] = IV, body, DMG-PEG2000:DSPC:Chol:compound 1.00:10.00:33.00:56.00, N/P 42, Fluc-mRNA
[16] = IV, liver, DMG-PEG2000:DSPC:Chol:compound 1.00:10.00:33.00:56.00, N/P 42
[17] = IV, liver, DMG-PEG2000:DSPC:Chol:compound 1.00:10.00:33.00:56.00, N/P 42, Fluc-mRNA
[18] = IV, lung, DMG-PEG2000:DSPC:Chol:compound 1.00:10.00:33.00:56.00, N/P 42
[19] = IV, lung, DMG-PEG2000:DSPC:Chol:compound 1.00:10.00:33.00:56.00, N/P 42, Fluc-mRNA
[20] = IV, spleen, DMG-PEG2000:DSPC:Chol:compound 1.00:10.00:33.00:56.00, N/P 42
[21] = IV, spleen, DMG-PEG2000:DSPC:Chol:compound 1.00:10.00:33.00:56.00, N/P 42, Fluc-mRNA
[22] = DMG-PEG2000:DSPC:Chol:compound 1.00:10.00:33.00:56.00, N/P 42
[23] = Fluc-circ-RNA LNP, preparation given IM
[24] = N/P 30, formulation cells blank (line above: DMG-PEG2000:DSPC:Chol:compound 1.00:10.00:33.00:56.00)
[25] = DMG-PEG2000:DSPC:Chol:compound 1.40:11.15:38.95:48.50, N/P 30
[26] = DMG-PEG2000:DSPC:Chol:compound 2.50:11.50:56.00:30.00, N/P 42

PDI [2, 11]: 0.13 ± 0.01
Particle size [2, 11]: 118.73 ± 0.90 nm
PDI [2, 12]: 0.11 ± 0.01
Particle size [2, 12]: 104.43 ± 0.96 nm
PDI [2, 13]: 0.14
Particle size (nm) [2, 13]: 138.90 nm
PDI [2, 14]: 0.19
Particle size (nm) [2, 14]: 152.1 nm
Zeta potential (mV) [3, 13]: 14.67 mV
Zeta potential (mV) [3, 14]: 16.27 mV
Structure (SMILES): CCCCCCCCCCCCNC(=O)C(O)CN(CCCN(CCO)CCCN(CC(O)C(=O)NCCCCCCCCCCCC)CC(O)C(=O)NCCCCCCCCCCCC)CC(O)C(=O)NCCCCCCCCCCCC (stereo not shown) [Compound L0281]
IVIS (mice [1]; DMG-PEG2000:DSPC:Chol:Lipid 1.40:11.15:38.95:48.50, N/P 30, IM, whole body scan): 1.38 × 10^6
IVIS (mice [1]; DMG-PEG2000:DSPC:Chol:Lipid 1.40:11.15:38.95:48.50, N/P 30, IV, body (whole body scan)): 6.41 × 10^7
% of organ targeting (mice [1]; [5]): 1.91%
IVIS (mice [1]; [5]): 3.17 × 10^6
% of organ targeting (mice [1]; [6]): 93.34%
IVIS (mice [1]; [6]): 1.55 × 10^8
% of organ targeting (mice [1]; [7]): 4.75%
IVIS (mice [1]; [7]): 7.89 × 10^6
IVIS (mice [1]; DMG-PEG2000:DSPC:Chol:Lipid 4.00:8.00:58.00:30.00, N/P 36, IV, body): 7.07 × 10^7
% of organ targeting (mice [1]; [8]): 21.21%
IVIS (mice [1]; [8]): 1.28 × 10^7
% of organ targeting (mice [1]; [9]): 1.08%
IVIS (mice [1]; [9]): 6.52 × 10^5
% of organ targeting (mice [1]; [10]): 77.71%
IVIS (mice [1]; [10]): 4.68 × 10^7
IVIS (mice [1]; IV, body, DMG-PEG2000:DSPC:Chol:compound 1.00:10.00:33.00:56.00, N/P 48, Fluc-mRNA): 4.66E+08
% of organ targeting (mice [1]; IV, liver, DMG-PEG2000:DSPC:Chol:compound 1.00:10.00:33.00:56.00, N/P 48): 0.73%
IVIS (mice [1]; IV, liver, DMG-PEG2000:DSPC:Chol:compound 1.00:10.00:33.00:56.00, N/P 48, Fluc-mRNA): 7.58E+06
% of organ targeting (mice [1]; IV, lung, DMG-PEG2000:DSPC:Chol:compound 1.00:10.00:33.00:56.00, N/P 48): 97.70%
IVIS (mice [1]; IV, lung, DMG-PEG2000:DSPC:Chol:compound 1.00:10.00:33.00:56.00, N/P 48, Fluc-mRNA): 1.02E+09
% of organ targeting (mice [1]; IV, spleen, DMG-PEG2000:DSPC:Chol:compound 1.00:10.00:33.00:56.00, N/P 48): 1.57%
IVIS (mice [1]; IV, spleen, DMG-PEG2000:DSPC:Chol:compound 1.00:10.00:33.00:56.00, N/P 48, Fluc-mRNA): 1.64E+07
in vivo delivery efficiency as compared to the benchmark compound SM102 (mice [1]; certain formulations, Table 2): superior in vivo delivery efficiency
tissue-targeting specificity (lung vs spleen depending on molar percentage of compound) (mice [1]; certain formulations, Table 2): strong tissue-targeting specificity
% of organ targeting (mice [4]; liver): 0.74%
% of organ targeting (mice [4]; lung): 96.58%
% of organ targeting (mice [4]; spleen): 2.68%

PDI [2, 22]: 0.10
Particle size (nm) [2, 22]: 108.93 nm
PDI [2, 23]: 0.15
Particle size (nm) [2, 23]: 106.57 nm
PDI [2, 24]: 0.10
Particle size (nm) [2, 24]: 89.30 nm
Zeta potential (mV) [3, 23]: 11.37 mV
Zeta potential (mV) [3, 24]: 9.98 mV
Structure (SMILES): CCCCCCC(CCCCCC)C(=O)OCCCCCCOC(=O)C(O)CN(CCCN(C)CCCN(CC(O)C(=O)OCCCCCCOC(=O)C(CCCCCC)CCCCCC)CC(O)C(=O)OCCCCCCOC(=O)C(CCCCCC)CCCCCC)CC(O)C(=O)OCCCCCCOC(=O)C(CCCCCC)CCCCCC (stereo not shown) [Compound L0293]
IVIS (mice [1]; IM, N/P 30, formulation cells blank (line above: DMG-PEG2000:DSPC:Chol:compound 1.00:10.00:33.00:56.00), Fluc-mRNA): 3.61E+07
IVIS (mice [1]; [15]): 3.11E+08
% of organ targeting (mice [1]; [16]): 18.15%
IVIS (mice [1]; [17]): 5.63E+07
% of organ targeting (mice [1]; [18]): 3.34%
IVIS (mice [1]; [19]): 1.03E+07
% of organ targeting (mice [1]; [20]): 78.51%
IVIS (mice [1]; [21]): 2.43E+08
IVIS (mice [4]; IM, organ not given): 1.02E+08

PDI [2, 22]: 0.17
Particle size (nm) [2, 22]: 75.31 nm
PDI [2, 25]: 0.18
Particle size (nm) [2, 25]: 111.20 nm
PDI [2, 26]: 0.17
Particle size (nm) [2, 26]: 82.60 nm
PDI [2, 14]: 0.2
Particle size (nm) [2, 14]: 115.97 nm
Zeta potential (mV) [3, 25]: 13.57 mV
Zeta potential (mV) [3, 14]: 9.98 mV
Structure (SMILES): CCCCCCCCCCOC(=O)C(O)CN(CCCN(C)CCCN(CC(O)C(=O)OCCCCCCCCCC)CC(O)C(=O)OCCCCCCCCCC)CC(O)C(=O)OCCCCCCCCCC (stereo not shown) [Compound L0313]
IVIS (mice [1]; IM, DMG-PEG2000:DSPC:Chol:compound 1.40:11.15:38.95:48.50, N/P 30, Fluc-mRNA): 7.43E+05
IVIS (mice [1]; [15]): 5.88E+07
IVIS (mice [1]; IV, body, DMG-PEG2000:DSPC:Chol:compound 2.50:11.50:56.00:30.00, N/P 42, Fluc-mRNA): 5.20E+07
% of organ targeting (mice [1]; [16]): 2.04%
IVIS (mice [1]; [17]): 3.78E+06
% of organ targeting (mice [1]; IV, liver, DMG-PEG2000:DSPC:Chol:compound 2.50:11.50:56.00:30.00, N/P 42): 6.90%
IVIS (mice [1]; IV, liver, DMG-PEG2000:DSPC:Chol:compound 2.50:11.50:56.00:30.00, N/P 42, Fluc-mRNA): 8.68E+06
% of organ targeting (mice [1]; [18]): 62.84%
IVIS (mice [1]; [19]): 1.17E+08
% of organ targeting (mice [1]; IV, lung, DMG-PEG2000:DSPC:Chol:compound 2.50:11.50:56.00:30.00, N/P 42): 1.10%
IVIS (mice [1]; IV, lung, DMG-PEG2000:DSPC:Chol:compound 2.50:11.50:56.00:30.00, N/P 42, Fluc-mRNA): 1.38E+06
% of organ targeting (mice [1]; [20]): 35.12%
IVIS (mice [1]; [21]): 6.52E+07
% of organ targeting (mice [1]; IV, spleen, DMG-PEG2000:DSPC:Chol:compound 2.50:11.50:56.00:30.00, N/P 42): 92.00%
IVIS (mice [1]; IV, spleen, DMG-PEG2000:DSPC:Chol:compound 2.50:11.50:56.00:30.00, N/P 42, Fluc-mRNA): 1.16E+08
% of organ targeting (mice [4]; liver): 3.39%
% of organ targeting (mice [4]; lung): 20.55%
% of organ targeting (mice [4]; spleen): 76.06%

— patent US12233161B1, “Lipids and lipid nanoparticle formulations” (LONGUIDE BIOPHARMA CORPORATION, priority 2024, dated 2025)
